What is called EC50 is the concentration needed to bring the measured effect to its halfway point. The low end stands for higher potency in that assay, the high end for lower potency in that assay.

Experimental findings from patent US9486506B2 (Novo Nordisk A/S, priority 2011, dated 2016) are described below.

Numbered stars: 1 amine (or outer) side, 2 acyl side, 3 side chain; on linkers, the order of the positions; unused ones are H or OH. Side chains are listed from the residue outwards. Peptide text beside a SMILES is read from it. * marks the point of attachment. X1 = O=C(CCCCCCCCCCCCCCCc1nnn[nH]1)NS(=O)(=O)CCCC(=O)*; C18 diacid = O=C(O)CCCCCCCCCCCCCCCCC(=O)*; C16 diacid = O=C(O)CCCCCCCCCCCCCCC(=O)*; γGlu = O=C(O)[C@H](CCC(=O)[*:2])N[*:1]; AEEA = NCCOCCOCC(=O)O

Series [1] can be described thus: Assay (X) Chemical stability assessment by RP-UPLC. As to conditions: pH 8.15, 14 days at 37° C. vs 5° C., 333 μM. Format: physicochemical. Here is the method:
Chemical Stability Assessment
Lyophilized samples were dissolved in buffer (see below for detailed compositions) to a final concentration of 333 μM and a pH of 8.15, and were incubated for 14 days at 5° C. and 37° C. followed by RP-UPLC analysis. Purity was defined as the area percentage of the main peak in relation to the total area of all integrated peaks in each chromatogram. Purity loss after 14 days at 37° C. was determined as the difference in purity between the samples incubated at 5° C. and 37° C., divided by the purity of the sample after incubation for 14 days at 5° C.
RP-UPLC analysis was performed using a Waters BEH130 2.1 mm×150 mm, 1.7 μm column operated at 50° C. and a flow rate of 0.4 mL/min using a mobile phase system consisting of typically A: 50 mM Phosphate, 10 w/w % Acetonitrile pH 3 and B: 80 v/v Acetonitrile. UV-detection was performed at 215 nm. The typical gradient profile used for most of the samples is shown below.
For some individual analogues eluting at substantially different retention times compared with the majority of analogues, some adjustments to the gradient profile were made to better enable purity assessment comparison across samples. Also the composition of the channel B mobile phase component was in some of the analyses exchanged for a 90 v/v % Acetonitrile solvent solution in an attempt to better handle carry-over of material from one injection to the next in the sequence. This was however compensated for by recalculating the gradient profile appropriately.
Buffer: • 50 mM Dinatriumphosphatdihydrat • 184 mM Propylenglycol • 58 mM Phenol • pH adjusted to 8.15 with H3PO4. In cases where pH was adjusted to 8.15 after re-suspension of analogues, 0.2 M NaOH was used. Assay (XI) Pharmacokinetic Study in Minipigs

In series [2] the target is T1, glucagon receptor (Homo sapiens, UniProt P47871).
T1 construct: expressed in transfected cells
T1 sequence (P47871 26-477): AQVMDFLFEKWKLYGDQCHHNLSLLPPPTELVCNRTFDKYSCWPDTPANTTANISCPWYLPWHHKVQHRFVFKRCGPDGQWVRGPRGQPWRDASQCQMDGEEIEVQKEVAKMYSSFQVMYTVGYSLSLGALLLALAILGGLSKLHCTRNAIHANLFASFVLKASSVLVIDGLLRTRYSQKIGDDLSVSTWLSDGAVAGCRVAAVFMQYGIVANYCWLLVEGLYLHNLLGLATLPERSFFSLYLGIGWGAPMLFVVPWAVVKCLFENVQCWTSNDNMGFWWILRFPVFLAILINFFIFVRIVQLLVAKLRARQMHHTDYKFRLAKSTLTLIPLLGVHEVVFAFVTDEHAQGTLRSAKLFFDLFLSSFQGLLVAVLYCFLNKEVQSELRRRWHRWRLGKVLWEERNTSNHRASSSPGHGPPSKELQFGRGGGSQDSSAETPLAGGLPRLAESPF
The series is described as follows: Assay (I) Glucagon activity (cAMP biosensor, FLIPR). Format: cell-based.

As for `CC(C)C[C@H](NC(=O)[C@H](Cc1ccc(O)cc1)NC(=O)[C@H](CCCCN)NC(=O)[C@H](CO)NC(=O)[C@H](Cc1ccc(O)cc1)NC(=O)[C@H](CC(=O)O)NC(=O)[C@H](CO)NC(=O)[C@@H](NC(=O)[C@H](Cc1ccccc1)NC(=O)[C@@H](NC(=O)CNC(=O)[C@H](CCC(N)=O)NC(=O)[C@H](CO)NC(=O)[C@@H](N)Cc1c[nH]cn1)[C@@H](C)O)[C@@H](C)O)C(=O)N[C@@H](CC(=O)O)C(=O)N[C@@H](CCC(=O)O)C(=O)N[C@@H](CCCNC(=N)N)C(=O)N[C@@H](CCCNC(=N)N)C(=O)N[C@@H](C)C(=O)N[C@@H](CCC(N)=O)C(=O)N[C@@H](CC(=O)O)C(=O)N[C@@H](Cc1ccccc1)C(=O)N[C@H](C(=O)N[C@@H](CCCCNC(=O)CC[C@H](NC(=O)CC[C@H](NC(=O)COCCOCCNC(=O)COCCOCCNC(=O)CC[C@H](NC(=O)CCCCCCCCCCCCCCC(=O)O)C(=O)O)C(=O)O)C(=O)O)C(=O)N[C@@H](Cc1c[nH]c2ccccc12)C(=O)N[C@@H](CC(C)C)C(=O)N[C@@H](CC(C)C)C(=O)N[C@@H](CO)C(=O)N[C@H](C(=O)O)[C@@H](C)O)C(C)C` [Example 93, N^ε24-[(4S)-4-carboxy-4-[[(4S)-4-carboxy-4-[[2-[2-[2-[[2-[2-[2-[[(4S)-4-carboxy-4-(15-carboxypentadecanoylamino)butanoyl]amino]ethoxy]ethoxy]acetyl]amino]ethoxy]ethoxy]acetyl]amino]butanoyl]amino]butanoyl]-[Glu16,Lys24,Leu27,Ser28]-Glucagon] (H-HSQGTFTSDYSKYLDERRAQDFVK([γGlu-γGlu-AEEA-AEEA-γGlu-C16 diacid])WLLST-OH; N-terminus and C-terminus assumed), the “Chemical stability [Purity loss/14 days 37 C.]” value in series [1] was found to be 14%. In series [2], this molecule returned an EC50 of 0.017 nM.
The corresponding values for `CC(C)C[C@H](NC(=O)[C@H](CC(=O)O)NC(=O)[C@H](CC(C)C)NC(=O)[C@H](Cc1ccc(O)cc1)NC(=O)[C@H](CCCNC(=N)N)NC(=O)[C@H](CO)NC(=O)[C@H](Cc1ccc(O)cc1)NC(=O)[C@H](CC(=O)O)NC(=O)[C@H](CO)NC(=O)[C@@H](NC(=O)[C@H](Cc1ccccc1)NC(=O)[C@@H](NC(=O)CNC(=O)[C@H](CCC(N)=O)NC(=O)[C@H](CO)NC(=O)[C@@H](N)Cc1c[nH]cn1)[C@@H](C)O)[C@@H](C)O)C(=O)N[C@@H](CCCNC(=N)N)C(=O)N[C@@H](CCCNC(=N)N)C(=O)N[C@@H](C)C(=O)N[C@@H](CCC(N)=O)C(=O)N[C@@H](CC(=O)O)C(=O)N[C@@H](Cc1ccccc1)C(=O)N[C@H](C(=O)N[C@@H](CCCCNC(=O)CC[C@H](NC(=O)CC[C@H](NC(=O)CC[C@H](NC(=O)CC[C@H](NC(=O)CCCCCCCCCCCCCCCCC(=O)O)C(=O)O)C(=O)O)C(=O)O)C(=O)O)C(=O)N[C@@H](Cc1c[nH]c2ccccc12)C(=O)N[C@@H](CC(C)C)C(=O)N[C@@H](CC(C)C)C(=O)N[C@@H](CO)C(=O)N[C@H](C(=O)O)[C@@H](C)O)C(C)C` [Example 86, N^ε24-[(4S)-4-carboxy-4-[[(4S)-4-carboxy-4-[[(4S)-4-carboxy-4-[[(4S)-4-carboxy-4-(17-carboxyheptadecanoylamino)butanoyl]amino]butanoyl]amino]butanoyl]amino]butanoyl]-[Arg12,Leu16,Lys24,Leu27,Ser28]-Glucagon] (H-HSQGTFTSDYSRYLDLRRAQDFVK([γGlu-γGlu-γGlu-γGlu-C18 diacid])WLLST-OH) are 3.7% and 0.343 nM.
The corresponding values for `CC(C)C[C@H](NC(=O)[C@H](Cc1c[nH]c2ccccc12)NC(=O)[C@H](CCCCNC(=O)CC[C@H](NC(=O)CC[C@H](NC(=O)COCCOCCNC(=O)COCCOCCNC(=O)CC[C@H](NC(=O)CCCCCCCCCCCCCCCCC(=O)O)C(=O)O)C(=O)O)C(=O)O)NC(=O)[C@@H](NC(=O)[C@H](Cc1ccccc1)NC(=O)[C@H](CC(=O)O)NC(=O)[C@H](CCC(N)=O)NC(=O)[C@H](C)NC(=O)[C@H](CCCNC(=N)N)NC(=O)[C@H](CCCNC(=N)N)NC(=O)[C@@H](NC(=O)[C@H](CC(=O)O)NC(=O)[C@H](CC(C)C)NC(=O)[C@H](Cc1ccc(O)cc1)NC(=O)[C@H](CCCNC(=N)N)NC(=O)[C@H](CO)NC(=O)[C@H](Cc1ccc(O)cc1)NC(=O)[C@H](CC(=O)O)NC(=O)[C@H](CO)NC(=O)[C@@H](NC(=O)[C@H](Cc1ccccc1)NC(=O)[C@@H](NC(=O)CNC(=O)[C@H](CCC(N)=O)NC(=O)[C@H](CO)NC(=O)[C@@H](N)Cc1c[nH]cn1)[C@@H](C)O)[C@@H](C)O)C(C)C)C(C)C)C(=O)N[C@@H](CC(C)C)C(=O)N[C@@H](CO)C(=O)N[C@H](C(=O)O)[C@@H](C)O` [Example 21, N^ε24-[(4S)-4-carboxy-4-[[(4S)-4-carboxy-4-[[2-[2-[2-[[2-[2-[2-[[(4S)-4-carboxy-4-(17-carboxyheptadecanoylamino)butanoyl]amino]ethoxy]ethoxy]acetyl]amino]ethoxy]ethoxy]acetyl]amino]butanoyl]amino]butanoyl]-[Arg^12,Val^16,Lys^24,Leu^27,Ser^28]-Glucagon] (H-HSQGTFTSDYSRYLDVRRAQDFVK([γGlu-γGlu-AEEA-AEEA-γGlu-C18 diacid])WLLST-OH) are 2.9% and 1.32 nM.
As for `CC(C)C[C@H](NC(=O)[C@H](Cc1ccc(O)cc1)NC(=O)[C@H](CCCNC(=N)N)NC(=O)[C@H](CO)NC(=O)[C@H](Cc1ccc(O)cc1)NC(=O)[C@H](CC(=O)O)NC(=O)[C@H](CO)NC(=O)[C@@H](NC(=O)[C@H](Cc1ccccc1)NC(=O)[C@@H](NC(=O)CNC(=O)[C@H](CCC(N)=O)NC(=O)[C@H](CO)NC(=O)[C@@H](N)Cc1c[nH]cn1)[C@@H](C)O)[C@@H](C)O)C(=O)N[C@@H](CC(=O)O)C(=O)N[C@@H](CCCNC(=N)N)C(=O)N[C@@H](CCCNC(=N)N)C(=O)N[C@@H](CCCNC(=N)N)C(=O)N[C@@H](C)C(=O)N[C@@H](CCC(N)=O)C(=O)N[C@@H](CC(=O)O)C(=O)N[C@@H](Cc1ccccc1)C(=O)N[C@H](C(=O)N[C@@H](CCCCNC(=O)CC[C@H](NC(=O)CC[C@H](NC(=O)COCCOCCNC(=O)COCCOCCNC(=O)CC[C@H](NC(=O)CCCCCCCCCCCCCCCCC(=O)O)C(=O)O)C(=O)O)C(=O)O)C(=O)N[C@@H](Cc1c[nH]c2ccccc12)C(=O)N[C@@H](CC(C)C)C(=O)N[C@@H](CC(C)C)C(=O)N[C@@H](CO)C(=O)N[C@H](C(=O)O)[C@@H](C)O)C(C)C` [Example 20, N^ε24-[(4S)-4-carboxy-4-[[(4S)-4-carboxy-4-[[2-[2-[2-[[2-[2-[2-[[(4S)-4-carboxy-4-(17-carboxyheptadecanoylamino)butanoyl]amino]ethoxy]ethoxy]acetyl]amino]ethoxy]ethoxy]acetyl]amino]butanoyl]amino]butanoyl]-[Arg^12,Arg^16,Lys^24,Leu^27,Ser^28]-Glucagon] (H-HSQGTFTSDYSRYLDRRRAQDFVK([γGlu-γGlu-AEEA-AEEA-γGlu-C18 diacid])WLLST-OH), the “Chemical stability [Purity loss/14 days 37 C.]” value in series [1] was found to be 10.4%. The molecule further displayed a 50% effective concentration (EC50) in series [2] of 0.355 nM.
On the same counts, the results for `CC(C)C[C@H](NC(=O)[C@H](CC(=O)O)NC(=O)[C@H](CC(C)C)NC(=O)[C@H](Cc1ccc(O)cc1)NC(=O)[C@H](CCCNC(=N)N)NC(=O)[C@H](CO)NC(=O)[C@H](Cc1ccc(O)cc1)NC(=O)[C@H](CC(=O)O)NC(=O)[C@H](CO)NC(=O)[C@@H](NC(=O)[C@H](Cc1ccccc1)NC(=O)[C@@H](NC(=O)CNC(=O)[C@H](CCC(N)=O)NC(=O)[C@H](CO)NC(=O)[C@@H](N)Cc1c[nH]cn1)[C@@H](C)O)[C@@H](C)O)C(=O)N[C@@H](CCCNC(=N)N)C(=O)N[C@@H](CCCNC(=N)N)C(=O)N[C@@H](C)C(=O)N[C@@H](CCC(N)=O)C(=O)N[C@@H](CC(=O)O)C(=O)N[C@@H](Cc1ccccc1)C(=O)N[C@H](C(=O)N[C@@H](CCCCNC(=O)CC[C@H](NC(=O)CC[C@H](NC(=O)COCCOCCNC(=O)COCCOCCNC(=O)CC[C@H](NC(=O)CCCS(=O)(=O)NC(=O)CCCCCCCCCCCCCCCc1nnn[nH]1)C(=O)O)C(=O)O)C(=O)O)C(=O)N[C@@H](Cc1c[nH]c2ccccc12)C(=O)N[C@@H](CC(C)C)C(=O)N[C@@H](CC(C)C)C(=O)N[C@@H](CO)C(=O)N[C@H](C(=O)O)[C@@H](C)O)C(C)C` [Example 67, N^ε24-[(4S)-4-carboxy-4-[[(4S)-4-carboxy-4-[[2-[2-[2-[[2-[2-[2-[[(4S)-4-carboxy-4-[4-[16-(1H-tetrazol-5-yl)hexadecanoylsulfannoyl]butanoylamino]butanoyl]amino]ethoxy]ethoxy]acetyl]amino]ethoxy]ethoxy]acetyl]amino]butanoyl]amino]butanoyl]-[Arg12,Leu16,Lys24,Leu27,Ser28]-Glucagon] (H-HSQGTFTSDYSRYLDLRRAQDFVK([γGlu-γGlu-AEEA-AEEA-γGlu-X1])WLLST-OH) are 7.4% and 0.231 nM.
